Test results taken from PMC9176681, “Evaluation of a flavonoid library for inhibition of interaction of HIV-1 integrase with human LEDGF/p75 towards a structure–activity relationship” (Annals of Medicine, 2022).
Values joined by “and” are separate entries in the source; they are usually repeats but may differ in a detail not shown here. Identical values can stand only once.

Biological target: T1, IN (Human immunodeficiency virus type 1 group M subtype B, UniProt P12497, C1427S/F1332K)
T1 construct: His6 (C); made in house; host or cells: E. coli
Assay: Biolayer interferometry (BLI) binding assay
Set-up: species or system HIV-1
Details: 30 °C, PBS with 0.01% Tween-20
With `O=c1cc(-c2ccc(O)c(O)c2)oc2cc(O)cc(O)c12` [compound 30, Luteolin] the Kd was 1300 nM. For `O=C1c2ccc(O)cc2OC(c2cc(O)c(O)c(O)c2)C1O` (stereo not shown) [dihydrorobinetin], the Kd was 1400 nM. With `Oc1cc(O)c2c(c1)O[C@H](c1ccc(O)c(O)c1)[C@H](O)C2` [epicatechin] the Kd was 1700 nM. For `O=c1c(-c2ccc(O)cc2)coc2cc(O)cc(O)c12` [genistein], the Kd was 3600 nM and 2700 nM. Molecule `COc1cc(O)cc(O)c1C(=O)/C=C/c1ccc(O)cc1` [helichrysetin] has a Kd of 2700 nM. Work on `O=c1c(O)c(-c2cc(O)c(O)c(O)c2)oc2cc(O)cc(O)c12` [myricetin] yielded a Kd of 1000 nM. In the case of `O=C1C[C@@H](c2ccc(O)cc2)Oc2cc(O)cc(O)c21` [naringenin], the Kd is reported as 1400 nM and 1900 nM.

Biological target: T2, IN-LEDGF/p75 interaction (Human immunodeficiency virus type 1 group M subtype B, UniProt P12497, C1427S/F1332K)
T2 construct: His6 (C); made in house; host or cells: E. coli
Assay: biochemical
Format: binding, HIV-1
Details: not given
Description: The inhibitory activities against the IBD-IN interaction were tested using HTRF assays according to a previous study. […] “Protein MIX” was prepared by mixing His6-HIV-1 IN (final concentration of 50 nM) and GST-IBD (final concentration of 25) in the assay buffer (25 mM Tris-HCl pH 7.5, 150 mM NaCl, 1 mg/ml BSA, 0.1% NP40, 2 mM MgCl2). […] To the 8 μl “protein MIX”, 2 μl of DMSO or compound (50 µM) dissolved in DMSO was added and mixed thoroughly. The concentrations of DMSO in the assay should be no more than 4%. The plate was incubated for 30 min at 25 °C. Then 10 μl premixed antibodies were added and mixed. The assay plate was incubated in the dark for 1 h at 25 °C. DMSO instead of the compound was used as a negative control. BI224436 was used as a positive compound for inhibition of IN-LEDGF/p75 interaction. […] Data were analysed and visualised in GraphPad Prism 5.0.
In the case of `Cc1nc2ccccc2c(-c2ccc3c4c(ccnc24)CCO3)c1[C@H](OC(C)(C)C)C(=O)O` [BI224436, reference compound], the IC50 is reported as 18.8 nM.

Same assay, conditions: HTRF, 50 μM final concentration
For `CC(C)=CCc1cc(-c2oc3cc(O)c(CC=C(C)C)c(O)c3c(=O)c2O)ccc1O` [compound 1], the “inhibitory activity against IN-LEDGF/p75 interaction (in words)” value (“inhibitory activity” for short) was “reduced”. In the case of `CC(C)=CCc1cc(-c2oc3cc(O)cc(O)c3c(=O)c2O)ccc1O` [compound 2], the “inhibitory activity” value is reported as “reduced”. In the case of `COc1cc(-c2oc3cc(O)cc(O)c3c(=O)c2O)ccc1O` [compound 3], the “inhibitory activity” value is reported as “reduced”. In the case of `COc1ccc(-c2oc3cc(O)cc(O)c3c(=O)c2O)cc1` [compound 4], the “inhibitory activity” value is reported as “reduced”. For `O=c1c(O)c(-c2ccc(O)c(O)c2)oc2cc(O)cc(O)c12` [compound 10], the “inhibitory activity” value was “effectively inhibited”. In the case of `COc1ccc(-c2oc3cc(O)cc(O)c3c(=O)c2O)cc1O` [compound 12], the “inhibitory activity” value is reported as “reduced”. In the case of `COc1cc(O)c2c(=O)c(OC)c(-c3ccc(O)c(OC)c3)oc2c1` [compound 14], the “inhibitory activity” value is reported as “reduced”. In the case of `COc1ccc(-c2oc3cc(O)cc(O)c3c(=O)c2OC)cc1O` [compound 15], the “inhibitory activity” value is reported as “reduced”. With `COc1cc2oc(-c3ccc(O)c(O)c3)c(OC)c(=O)c2c(O)c1OC` [compound 16] the “inhibitory activity” value was “effectively inhibited”. For `COc1cc(-c2oc3cc(O)c(OC)c(O)c3c(=O)c2OC)ccc1O` [compound 17], the “inhibitory activity” value was “reduced”. In the case of `COc1cc(-c2oc3cc(OC)c(OC)c(O)c3c(=O)c2OC)ccc1O` [compound 19], the “inhibitory activity” value is reported as “reduced”. With `O=c1cc(-c2ccc(O)c(O)c2)oc2cc(O)cc(O)c12` [compound 30, Luteolin] the “inhibitory activity” value was “most potent”. With `O=C1c2ccc(O)cc2OC(c2cc(O)c(O)c(O)c2)C1O` (stereo not shown) [compound 43] the “inhibitory activity” value was “efficiently blocked”. With `O=C1c2c(O)cc(O)cc2OC(c2cc(O)c(O)c(O)c2)[C@H]1O` (stereo partly shown) [compound 47] the “inhibitory activity” value was “efficiently blocked”. For `COc1cc(O)c2c(c1)OC(c1ccc(O)cc1)CC2=O` (stereo not shown) [compound 49], the “inhibitory activity” value was “loss of activity”. With `COc1cc(C2CC(=O)c3c(cc(O)c(OC)c3O)O2)cc(O)c1OC` (stereo not shown) [compound 50] the “inhibitory activity” value was “loss of activity”. For `COc1c(O)cc2c(c1O)C(=O)CC(c1ccc(O)cc1)O2` (stereo not shown) [compound 52], the “inhibitory activity” value was “loss of activity”. With `COc1c(O)cc(O)c2c1O[C@@H](c1ccccc1O)CC2=O` [compound 60] the “inhibitory activity” value was “loss of activity”. With `CC(C)=CCc1c(O)ccc2c1O[C@@H](c1ccc(O)cc1)CC2=O` [compound 64] the “inhibitory activity” value was “loss of activity”. For `Oc1cc(O)c2c(c1)O[C@H](c1cc(O)c(O)c(O)c1)[C@H](O)C2` [compound 68], the “inhibitory activity” value was “effectively blocked”. With `Oc1cc(O)c2c(c1)O[C@H](c1ccc(O)c(O)c1)[C@@H](O)C2` [compound 70] the “inhibitory activity” value was “effectively blocked”. In the case of `Oc1cc(O)c2c(c1)O[C@H](c1ccc(O)c(O)c1)[C@H](O)C2` [compound 71], the “inhibitory activity” value is reported as “effectively blocked”. With `COc1cc(O)c(OC)c(O)c1C(=O)/C=C/c1ccccc1` [compound 89] the “inhibitory activity” value was “drop in protein-protein interaction disruption”. In the case of `COc1ccccc1/C=C/C(=O)c1c(OC)cc(O)c(OC)c1O` [compound 93], the “inhibitory activity” value is reported as “drop in protein-protein interaction disruption”. In the case of `COc1cc(O)c(CC=C(C)C)c(O)c1C(=O)/C=C/c1ccc(O)cc1` [compound 95], the “inhibitory activity” value is reported as “drop in protein-protein interaction disruption”. With `C=C(C)C(O)Cc1c(O)cc(OC)c(C(=O)/C=C/c2ccc(O)cc2)c1O` (stereo not shown) [compound 96] the “inhibitory activity” value was “drop in protein-protein interaction disruption”. In the case of `COc1cc(O)c(C(=O)/C=C/c2ccccc2)c(O)c1OC` [compound 99], the “inhibitory activity” value is reported as “drop in protein-protein interaction disruption”. In the case of `O=c1c(-c2ccc(O)cc2)coc2cc(O)cc(O)c12` [genistein], the “inhibitory activity” value is reported as “worst inhibitory activity”.

Biological target: T2, IN-LEDGF/p75 interaction
Assay: not given
Set-up: method as in PMID 24663024
Details: previous experiment result; read-out: IC50, inhibition of IN-LEDGF/p75 interaction, previous experiment result; cited from earlier work
For `Cc1nc2ccccc2c(-c2ccc3c4c(ccnc24)CCO3)c1[C@H](OC(C)(C)C)C(=O)O` [BI224436, reference compound], the IC50 is given as 11 nM.
